Assay results published in patent publication US20250002455A1, “NEW N-PHENYLPYRROLAMIDE INHIBITORS OF DNA GYRASE AND TOPOISOMERASE IV WITH ANTIBACTERIAL ACTIVITY” (priority 2020, published 2025).
In brackets after ≈: the same amount, converted by molar mass.

Columns and labels:
E. coli DNA gyrase = molecular target: T1, E. coli DNA gyrase (Escherichia coli, UniProt P0AES6); assay: biochemical; conditions: E. coli DNA gyrase; for IC50: read-out: IC50
T1 construct: purchased Inspiralis
Description: (§1) Inhibitory activities for compounds of the present invention were determined on E. coli and S. aureus DNA gyrase and topoisomerase IV in an assay from Inspiralis on streptavidin-coated 96-well microtiter plates from Thermo scientific Pierce. […] After washing off the unbound oligonucleotide, the enzyme test was performed. […] Reaction solutions were incubated at 37° C. for 30 min. After that, the TF buffer (50 mM NaOAc with pH 5.0, 50 mM NaCl and 50 mM MgCl2) was added to terminate the enzymatic reaction. After additional incubation for 30 min at rt, during which biotin-oligonucleotide-plasmid triplex was formed, the unbound plasmid was washed off using TF buffer and SybrGOLD in T10 buffer (10 mM Tris HCl with pH 8.0 and 1 mM EDTA) was added. […] GraphPad Prism 6.0 software was used to calculate the IC50 values. The result is given as the average value of three independent measurements. […] Chemoth.

E. coli topoisomerase IV = molecular target: T2, E. coli topoisomerase IV (Escherichia coli, UniProt P20083); assay: biochemical; conditions: E. coli topo IV; for IC50: read-out: IC50; for remaining activity at 10 µM: 10 μM compound
T2 construct: purchased Inspiralis
Description: Inhibitory activities for compounds of the present invention were determined on E. coli and S. aureus DNA gyrase and topoisomerase IV in an assay from Inspiralis on streptavidin-coated 96-well microtiter plates from Thermo scientific Pierce. […] After washing off the unbound oligonucleotide, the enzyme test was performed. […] Reaction solutions were incubated at 37° C. for 30 min. After that, the TF buffer (50 mM NaOAc with pH 5.0, 50 mM NaCl and 50 mM MgCl2) was added to terminate the enzymatic reaction. After additional incubation for 30 min at rt, during which biotin-oligonucleotide-plasmid triplex was formed, the unbound plasmid was washed off using TF buffer and SybrGOLD in T10 buffer (10 mM Tris HCl with pH 8.0 and 1 mM EDTA) was added. […] Initial screening was done at 100 or 10 nM concentration of inhibitors against E. coli DNA gyrase or 1 μM or 100 nM concentration against S. aureus DNA gyrase and E. coli and S. aureus topo IV. […] GraphPad Prism 6.0 software was used to calculate the IC50 values. The result is given as the average value of three independent measurements. […] Chemoth.

A. baumannii ATCC 17978 = assay: Microbroth dilution MIC (CLSI); assay type: cell-based; conditions: Acinetobacter baumannii, ATCC17978; A. baumannii ATCC 17978; read-out: MIC
Description: (§2) The chemical entities described in the present invention were assessed for their antimicrobial activity using a microbroth dilution assay as recommended by the CLSI (Methods for Dilution Antimicrobial Susceptibility Tests for Bacteria That Grow Aerobically, and Methods for Antimicrobial Susceptibility Testing of Anaerobic Bacteria, Clinical and Laboratory Standards Institute, Document M07-A8, and M11-A8, Wayne, PA 19087, USA, 2012.). Compounds were dissolved by using 100% DMSO. Serial two-fold dilutions of each compound were made by using 100% DMSO as the diluent.
(§3) A library of Gram-negative and Gram-positive microbes and their drug- and multidrug-resistant variants were employed as test organisms. The MIC (minimum inhibitory concentration) was determined as the lowest concentration of an individual drug that lead to no visible growth.

E. coli ATCC 25922 = assay: Microbroth dilution MIC (CLSI); assay type: cell-based; conditions: Escherichia coli, ATCC25922; E. coli ATCC 25922; read-out: MIC
Description: as §2, §3

E. faecalis ATCC 29212 = assay: Microbroth dilution MIC (CLSI); assay type: cell-based; conditions: Enterococcus faecalis, ATCC29212; E. faecalis ATCC 29212; read-out: MIC
Description: as §2, §3

E. faecium ATCC 700221 = assay: Microbroth dilution MIC (CLSI); assay type: cell-based; conditions: Enterococcus faecium, ATCC700221; E. faecium ATCC 700221; read-out: MIC
Description: as §2, §3

[1] = test system: E. spp. cloacae ATCC 13047; assay: Microbroth dilution MIC (CLSI); assay type: cell-based; conditions: Enterobacter cloacae, ATCC13047; E. spp. cloacae ATCC 13047; read-out: MIC
Description: as §2, §3

K. pneumoniae ATCC 10031 = assay: Microbroth dilution MIC (CLSI); assay type: cell-based; conditions: Klebsiella pneumoniae, ATCC10031; K. pneumoniae ATCC 10031; read-out: MIC
Description: as §2, §3

P. aeruginosa ATCC 27853 = assay: Microbroth dilution MIC (CLSI); assay type: cell-based; conditions: Pseudomonas aeruginosa, ATCC27853; P. aeruginosa ATCC 27853; read-out: MIC
Description: as §2, §3

S. aureus ATCC 29213 = assay: Microbroth dilution MIC (CLSI); assay type: cell-based; conditions: Staphylococcus aureus, ATCC29213; S. aureus ATCC 29213; read-out: MIC
Description: as §2, §3

[2] = test system: S. aureus ATCC 43300 (MRSA); assay: Microbroth dilution MIC (CLSI); assay type: cell-based; conditions: Staphylococcus aureus; S. aureus ATCC 43300 (MRSA); read-out: MIC
Description: as §2, §3

[3] = test system: S. aureus ATCC 700699 (VISA); assay: Microbroth dilution MIC (CLSI); assay type: cell-based; conditions: Staphylococcus aureus; S. aureus ATCC 700699 (VISA); read-out: MIC
Description: as §2, §3

S. aureus DNA gyrase = molecular target: T3, S. aureus DNA gyrase (Staphylococcus aureus, UniProt P0A0K8); assay: biochemical; conditions: S. aureus DNA gyrase; read-out: IC50
T3 construct: purchased Inspiralis
Description: as §1

[4] = read-out: RA (residual activity of the enzyme)

T2 sequence (P0AFI2 whole entry): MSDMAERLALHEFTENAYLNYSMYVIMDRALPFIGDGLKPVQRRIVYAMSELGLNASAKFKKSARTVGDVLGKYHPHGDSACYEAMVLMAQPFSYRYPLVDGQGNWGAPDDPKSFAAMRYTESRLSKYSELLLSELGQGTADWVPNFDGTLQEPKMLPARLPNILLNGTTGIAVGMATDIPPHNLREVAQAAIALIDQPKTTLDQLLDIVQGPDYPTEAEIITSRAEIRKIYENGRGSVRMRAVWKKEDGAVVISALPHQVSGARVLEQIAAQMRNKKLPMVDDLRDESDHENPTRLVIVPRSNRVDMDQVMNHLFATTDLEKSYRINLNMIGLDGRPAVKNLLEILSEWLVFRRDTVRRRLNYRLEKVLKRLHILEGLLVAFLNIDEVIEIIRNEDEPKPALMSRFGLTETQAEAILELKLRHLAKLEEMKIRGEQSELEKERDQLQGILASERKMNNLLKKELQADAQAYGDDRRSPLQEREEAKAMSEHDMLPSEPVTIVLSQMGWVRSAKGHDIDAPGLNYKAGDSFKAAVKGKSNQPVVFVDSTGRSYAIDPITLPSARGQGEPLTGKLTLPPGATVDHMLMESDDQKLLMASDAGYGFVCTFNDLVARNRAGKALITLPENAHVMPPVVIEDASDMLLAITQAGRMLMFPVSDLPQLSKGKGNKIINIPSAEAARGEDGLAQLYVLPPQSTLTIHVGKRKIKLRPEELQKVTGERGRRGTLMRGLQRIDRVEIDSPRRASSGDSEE
T2 sequence (P20083 whole entry): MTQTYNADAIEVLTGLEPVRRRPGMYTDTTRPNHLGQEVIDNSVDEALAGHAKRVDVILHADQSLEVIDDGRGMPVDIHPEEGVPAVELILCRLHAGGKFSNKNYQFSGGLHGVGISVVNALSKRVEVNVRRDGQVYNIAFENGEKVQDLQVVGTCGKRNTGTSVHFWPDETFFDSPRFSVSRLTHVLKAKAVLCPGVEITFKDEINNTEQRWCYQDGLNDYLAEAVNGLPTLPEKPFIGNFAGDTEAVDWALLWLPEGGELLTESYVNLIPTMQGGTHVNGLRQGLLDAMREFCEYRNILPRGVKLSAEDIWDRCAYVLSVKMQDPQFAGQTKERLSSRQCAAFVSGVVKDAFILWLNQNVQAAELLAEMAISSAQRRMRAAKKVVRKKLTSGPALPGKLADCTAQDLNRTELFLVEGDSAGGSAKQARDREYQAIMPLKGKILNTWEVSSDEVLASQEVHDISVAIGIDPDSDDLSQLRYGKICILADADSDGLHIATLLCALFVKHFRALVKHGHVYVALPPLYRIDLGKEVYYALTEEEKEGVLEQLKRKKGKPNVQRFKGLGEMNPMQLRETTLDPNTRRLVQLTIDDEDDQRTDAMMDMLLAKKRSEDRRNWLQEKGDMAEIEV
T3 sequence (P20831 whole entry): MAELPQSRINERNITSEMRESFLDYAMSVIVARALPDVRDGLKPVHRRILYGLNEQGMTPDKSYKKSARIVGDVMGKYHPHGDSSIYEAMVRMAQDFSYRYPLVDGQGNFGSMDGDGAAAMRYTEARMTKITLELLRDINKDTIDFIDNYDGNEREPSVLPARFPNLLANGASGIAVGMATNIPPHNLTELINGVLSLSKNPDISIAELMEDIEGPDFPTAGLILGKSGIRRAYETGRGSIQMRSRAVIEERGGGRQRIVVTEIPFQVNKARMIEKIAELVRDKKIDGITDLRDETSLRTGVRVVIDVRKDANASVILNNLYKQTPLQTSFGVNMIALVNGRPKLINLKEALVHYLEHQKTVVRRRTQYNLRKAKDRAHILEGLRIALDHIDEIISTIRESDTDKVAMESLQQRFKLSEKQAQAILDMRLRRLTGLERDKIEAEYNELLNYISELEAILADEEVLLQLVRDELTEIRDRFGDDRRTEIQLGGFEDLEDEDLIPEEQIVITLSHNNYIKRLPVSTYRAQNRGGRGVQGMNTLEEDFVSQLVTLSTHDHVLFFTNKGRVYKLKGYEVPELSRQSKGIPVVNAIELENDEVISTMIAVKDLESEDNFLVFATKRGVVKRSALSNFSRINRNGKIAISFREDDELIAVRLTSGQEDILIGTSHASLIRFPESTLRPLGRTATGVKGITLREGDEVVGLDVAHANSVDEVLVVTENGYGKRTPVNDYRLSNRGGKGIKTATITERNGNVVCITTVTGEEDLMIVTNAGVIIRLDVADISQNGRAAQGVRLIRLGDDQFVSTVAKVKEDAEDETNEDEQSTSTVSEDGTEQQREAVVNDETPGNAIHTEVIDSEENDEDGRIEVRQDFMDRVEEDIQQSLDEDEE
T3 sequence (P0A0K8 whole entry): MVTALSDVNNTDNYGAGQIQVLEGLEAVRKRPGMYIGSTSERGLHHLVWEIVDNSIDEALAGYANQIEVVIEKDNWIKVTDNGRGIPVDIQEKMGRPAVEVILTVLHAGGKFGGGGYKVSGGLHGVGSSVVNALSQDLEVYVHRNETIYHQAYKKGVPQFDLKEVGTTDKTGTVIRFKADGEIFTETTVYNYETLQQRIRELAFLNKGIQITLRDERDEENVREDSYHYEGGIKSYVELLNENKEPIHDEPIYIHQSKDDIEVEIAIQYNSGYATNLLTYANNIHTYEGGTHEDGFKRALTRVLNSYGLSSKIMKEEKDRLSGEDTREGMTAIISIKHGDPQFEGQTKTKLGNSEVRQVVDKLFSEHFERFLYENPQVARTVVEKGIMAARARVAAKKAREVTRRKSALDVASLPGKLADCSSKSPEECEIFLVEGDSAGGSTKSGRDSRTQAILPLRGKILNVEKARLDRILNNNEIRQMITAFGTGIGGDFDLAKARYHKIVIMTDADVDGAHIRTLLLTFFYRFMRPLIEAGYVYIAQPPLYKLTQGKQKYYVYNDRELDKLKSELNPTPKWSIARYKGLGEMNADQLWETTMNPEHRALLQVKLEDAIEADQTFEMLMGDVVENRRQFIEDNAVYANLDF

Row | SMILES | IC50 (E. coli DNA gyrase) | remaining activity at 0.1 µM (E. coli topoisomerase IV; 0.1 μM compound, read-out: RA (residual activity of the enzyme)) | remaining activity at 1 µM (E. coli topoisomerase IV; 1 μM compound, read-out: RA (residual activity of the enzyme)) | MIC (A. baumannii ATCC 17978) | MIC (E. coli ATCC 25922) | MIC (E. faecalis ATCC 29212) | MIC (E. faecium ATCC 700221) | MIC [1] | MIC (K. pneumoniae ATCC 10031) | MIC (P. aeruginosa ATCC 27853) | MIC (S. aureus ATCC 29213) | MIC [2] | MIC [3] | IC50 (S. aureus DNA gyrase) | IC50 (E. coli topoisomerase IV) | remaining activity at 10 µM (E. coli topoisomerase IV; [4]) | remaining activity at 10 pM (E. coli DNA gyrase; 0.01 nM compound, read-out: RA (residual activity of the enzyme)) | remaining activity at 0.0001 µM (E. coli DNA gyrase; 0.1 nM compound, read-out: RA (residual activity of the enzyme)) | remaining activity at 0.01 µM (E. coli DNA gyrase; 10 nM compound, read-out: RA (residual activity of the enzyme))
1 | Cc1[nH]c(C(=O)Nc2ccc(-c3noc(=O)[nH]3)cc2N2CCC(N)CC2)c(Cl)c1Cl.Cl [Example 1, 1-(2-(3,4-Dichloro-5-methyl-1H-pyrrole-2-carboxamido)-5-(5-oxo-4,5-dihydro-1,2,4-oxadiazol-3-yl)phenyl)piperidin-4-aminium chloride] | 0.253 nM | 105% | 33% | ≥ 64 µg/mL | ≥ 64 µg/mL | 32 µg/mL | 32 µg/mL | ≥ 64 µg/mL | 64 µg/mL | ≥ 64 µg/mL | 64 µg/mL | 32 µg/mL | 16 µg/mL | – | – | – | – | – | –
2 | Cc1[nH]c(C(=O)Nc2ccc(-c3noc(=O)[nH]3)cc2N2CCCC(N)C2)c(Cl)c1Cl.Cl (stereo not drawn) [Example 2, 1-(2-(3,4-Dichloro-5-methyl-1H-pyrrole-2-carboxamido)-5-(5-oxo-4,5-dihydro-1,2,4-oxadiazol-3-yl)phenyl)piperidin-3-aminium chloride] | 2.49 nM | – | – | > 64 µg/mL | > 64 µg/mL | 8 µg/mL | 8 µg/mL | > 64 µg/mL | 16 µg/mL | > 64 µg/mL | > 64 µg/mL | > 64 µg/mL | > 64 µg/mL | 55.8 nM | 145 nM | – | – | – | –
3 | Cc1[nH]c(C(=O)Nc2ccc(-c3noc(=O)[nH]3)cc2N2CCCC(CN)C2)c(Cl)c1Cl.Cl (stereo not drawn) [Example 3, (1-(2-(3,4-Dichloro-5-methyl-1H-pyrrole-2-carboxamido)-5-(5-oxo-4,5-dihydro-1,2,4-oxadiazol-3-yl)phenyl)piperidin-3-yl)methanaminium chloride] | 3.19 nM | – | – | > 64 µg/mL | > 64 µg/mL | 0.25 µg/mL | 2 µg/mL | > 64 µg/mL | 2 µg/mL | > 64 µg/mL | 4 µg/mL | 4 µg/mL | 2 µg/mL | 24.1 nM | 41.8 nM | – | – | – | –
4 | Cc1[nH]c(C(=O)Nc2ccc(-c3n[nH]c(=O)o3)cc2OCc2ccccc2)c(Cl)c1Cl [Example 11, N-(2-(Benzyloxy)-4-(5-oxo-4,5-dihydro-1,3,4-oxadiazol-2-yl)phenyl)-3,4-dichloro-5-methyl-1H-pyrrole-2-carboxamide] | 886 nM | – | – | ≥ 32 µg/mL | ≥ 32 µg/mL | ≥ 32 µg/mL | ≥ 32 µg/mL | ≥ 32 µg/mL | ≥ 32 µg/mL | ≥ 32 µg/mL | ≥ 32 µg/mL | ≥ 32 µg/mL | ≥ 32 µg/mL | – | – | 106% | – | – | –
5 | Cc1[nH]c(C(=O)Nc2ccc(-n3nn[nH]c3=O)cc2N2CCN(c3ccccc3)CC2)c(Cl)c1Cl [Example 24, 3,4-Dichloro-5-methyl-N-(4-(5-oxo-4,5-dihydro-1H-tetrazol-1-yl)-2-(4-phenylpiperazin-1-yl)phenyl)-1H-pyrrole-2-carboxamide] | 7.8 nM | – | – | ≥ 32 µg/mL | ≥ 32 µg/mL | 0.5 µg/mL (≈ 0.974 µM) | 0.5 µg/mL (≈ 0.974 µM) | ≥ 32 µg/mL | ≥ 32 µg/mL | ≥ 32 µg/mL | ≥ 32 µg/mL | ≥ 32 µg/mL | 0.5 µg/mL (≈ 0.974 µM) | – | – | – | – | – | –
6 | Cc1[nH]c(C(=O)Nc2ccc(-n3nn[nH]c3=O)cc2N2Cc3ccccc3C2)c(Cl)c1Cl [Example 25, 3,4-Dichloro-N-(2-(isoindolin-2-yl)-4-(5-oxo-4,5-dihydro-1H-tetrazol-1-yl)phenyl)-5-methyl-1H-pyrrole-2-carboxamide] | – | – | – | > 64 µg/mL | > 64 µg/mL | 0.25 µg/mL (≈ 0.532 µM) | 0.5 µg/mL (≈ 1.06 µM) | > 64 µg/mL | > 64 µg/mL | > 64 µg/mL | 16 µg/mL (≈ 34 µM) | > 64 µg/mL | > 64 µg/mL | – | – | 105% | 73% | 26% | –
7 | Cc1[nH]c(C(=O)Nc2ccc(-c3n[nH]c(=O)o3)cc2OC2CCNC2)c(Cl)c1Cl.Cl (stereo not drawn) [Example 26, 3-(2-(3,4-Dichloro-5-methyl-1H-pyrrole-2-carboxamido)-5-(5-oxo-4,5-dihydro-1,3,4-oxadiazol-2-yl)phenoxy)pyrrolidin-1-ium chloride] | 3.54 nM | – | – | ≥ 32 µg/mL | ≥ 32 µg/mL | ≥ 32 µg/mL | ≥ 32 µg/mL | ≥ 32 µg/mL | ≥ 32 µg/mL | ≥ 32 µg/mL | ≥ 32 µg/mL | ≥ 32 µg/mL | ≥ 32 µg/mL | – | – | – | – | – | –
8 | Cc1[nH]c(C(=O)Nc2ccc(-c3n[nH]c(=O)o3)cc2OC2CCNCC2)c(Cl)c1Cl.Cl [Example 27, 4-(2-(3,4-Dichloro-5-methyl-1H-pyrrole-2-carboxamido)-5-(5-oxo-4,5-dihydro-1,3,4-oxadiazol-2-yl)phenoxy)piperidin-1-ium chloride] | 2.26 nM | – | – | ≥ 32 µg/mL | ≥ 32 µg/mL | > 64 µg/mL | 8 µg/mL | ≥ 32 µg/mL | 0.125 µg/mL | ≥ 32 µg/mL | 16 µg/mL | 8 µg/mL | ≥ 64 µg/mL | – | – | – | – | – | –
9 | Cc1[nH]c(C(=O)Nc2ccc(-c3n[nH]c(=O)o3)cc2OCC2CCCNC2)c(Cl)c1Cl.Cl (stereo not drawn) [Example 28, 3-((2-(3,4-Dichloro-5-methyl-1H-pyrrole-2-carboxamido)-5-(5-oxo-4,5-dihydro-1,3,4-oxadiazol-2-yl)phenoxy)methyl)piperidin-1-ium chloride] | 0.75 nM | – | – | > 64 µg/mL | > 64 µg/mL | > 64 µg/mL | > 64 µg/mL | > 64 µg/mL | 0.5 µg/mL | > 64 µg/mL | > 64 µg/mL | > 64 µg/mL | > 64 µg/mL | – | – | – | – | – | –
10 | Cc1[nH]c(C(=O)Nc2ccc(-c3n[nH]c(=O)o3)cc2OCCC2CCNCC2)c(Cl)c1Cl.Cl [Example 29, 4-(2-(2-(3,4-Dichloro-5-methyl-1H-pyrrole-2-carboxamido)-5-(5-oxo-4,5-dihydro-1,3,4-oxadiazol-2-yl)phenoxy)ethyl)piperidin-1-ium chloride] | – | – | – | ≥ 32 µg/mL | ≥ 32 µg/mL | ≥ 32 µg/mL | ≥ 32 µg/mL | ≥ 32 µg/mL | ≥ 32 µg/mL | ≥ 32 µg/mL | ≥ 32 µg/mL | ≥ 32 µg/mL | ≥ 32 µg/mL | – | – | 103% | – | – | 1%
